In patent US11254700B2, “GSK-3β inhibitors and use thereof in methods of treatment” (UNIVERSITY OF HAWAII, priority 2017, dated 2022):
Entries after “also recorded” stand apart in the source; their conditions may differ.

Assays:
Assay type in all cases: in vivo, mouse
[1] = tested on: IgG anti-Aβ42; test: Anti-Aβ immunoglobulin (IgG) in serum by ELISA; conditions: APP/PS1 mice, 60-day intragastric, vs model group
Method: The backgrounds of all mice (APP/PS1 dual transgenic mice and wild-type mice with littermates) were C57/B6. Transgenic mice were randomly divided into three groups (n=20 for each group), and wild-type mice were used as controls (n=20). The control group and one group of transgenic mice (model group) were given sterilized ultrapure water, and the other two groups of transgenic mice received low- and high-dose Isoorientin (20 and 50 mg/kg, respectively) via intragastric administration for 60 days. Throughout the study-period, animals were housed in a controlled environment (temperature, 22° C.; humidity, 50-60%, 12-hour light/12-hour dark schedules), with free access to rodent chow and water. After a Morris water maze test, mice were perfused with cold phosphate-buffered saline (PBS), brain tissues were dissected and kept frozen at −80° C. until further analysis. […] Blood was collected from mice. […] The anti-Aβ immunoglobulin (IgG) was measured using an enzyme-linked immunosorbent assay (ELISA) kit according to the manufacturer's protocol (see also, Song, et al. (2017) PLoS One 12(1):e0169509). […] The optical densities at 450 nm were analyzed using a microreader (TECAN, Switzerland) and linear regression was confirmed by ab126468, polyclonal anti-amyloid fibril antibody, as positive internal control. […]

[2] = tested on: TNFα, IL-2, IFN-γ, IL-4, IL-10; test: Serum cytokines; conditions: APP/PS1 mice, vs model group
Method: The backgrounds of all mice (APP/PS1 dual transgenic mice and wild-type mice with littermates) were C57/B6. Transgenic mice were randomly divided into three groups (n=20 for each group), and wild-type mice were used as controls (n=20). The control group and one group of transgenic mice (model group) were given sterilized ultrapure water, and the other two groups of transgenic mice received low- and high-dose Isoorientin (20 and 50 mg/kg, respectively) via intragastric administration for 60 days. Throughout the study-period, animals were housed in a controlled environment (temperature, 22° C.; humidity, 50-60%, 12-hour light/12-hour dark schedules), with free access to rodent chow and water. After a Morris water maze test, mice were perfused with cold phosphate-buffered saline (PBS), brain tissues were dissected and kept frozen at −80° C. until further analysis. […] T-cell-specific cytokines (Interferon-γ (IFN-γ), interleukin (IL)-2, IL-4, and IL-10) in mouse serum were also measured. Mouse Th17 Magnetic Bead Panel 96-Well Plate Assay was purchased from Millipore. The assay was performed in a 96-well plate and all reagents were prepared according to the Millipore instructions. Briefly, 200 μL of Wash Buffer was added into each well to pre-wet plate, Wash Buffer was decanted thoroughly and the plate was mixed on a plate shaker for 10 minutes at room temperature (25-27° C.). In accordance with the instructions of the kit, the appropriate reagents were added to the wells and the plate was sealed and incubated overnight at 4° C. in the dark. Plates were put on the magnetic support and each well was washed twice with 200 μl of wash buffer via a plate shaker at 450 rpm for 2 minutes at room temperature. After adding 5 μl of detection antibody to each well, the plate was sealed and incubated with agitation on a plate shaker for 1 hour at room temperature. […] Binding was assessed using a LUMINEX-200 instrument and xPONENT software. Serum samples were analyzed for IL4 and TNFα using a Mouse IL4 ELISA Kit and a Mouse TNFα ELISA Kit, respectively, according to the manufacturer's instructions. […]

[3] = tested on: amyloid plaques; test: Thioflavin-S staining of brain plaques; set-up: dose or concentration left out as unconfirmed; conditions: more pronounced with increasing dose
Method: The backgrounds of all mice (APP/PS1 dual transgenic mice and wild-type mice with littermates) were C57/B6. Transgenic mice were randomly divided into three groups (n=20 for each group), and wild-type mice were used as controls (n=20). […] Throughout the study-period, animals were housed in a controlled environment (temperature, 22° C.; humidity, 50-60%, 12-hour light/12-hour dark schedules), with free access to rodent chow and water. After a Morris water maze test, mice were perfused with cold phosphate-buffered saline (PBS), brain tissues were dissected and kept frozen at −80° C. until further analysis. […] The brain tissue was then embedded in an OCT agent and placed at −80° C. for storage until use. […] The Thio-S staining procedure was according to known methods (Maiti, et al. (2016) Histochem. Cell Biol. 146(5):609-625). Briefly, Thio-S solution at 0.1% (w/v) was prepared by dissolving 0.1 gram of Thioflavin-S(Sigma-Aldrich) in 50% ethanol (v/v). The tissue sections were washed three times with PBS for five minutes each time. The sections were incubated with 0.1% Thio-S for 10 minutes, dipping them three times in 50% ethanol (v/v) for 10 minutes each time, and finally washing once in PBS, before being mounted, as described above. The sections were visualized using a fluorescence microscope (Leica, Germany), with excitation/emission filters (480/550 nm).

SMILES: O=c1cc(-c2ccc(O)c(O)c2)oc2cc(O)c([C@@H]3O[C@H](CO)[C@@H](O)[C@H](O)[C@H]3O)c(O)c12 [Compound 1, isoorientin]
- IgG anti-Aβ42 in serum [1]: decreased; also recorded: reduced
- IFNγ in serum [2]: no statistical difference in the decrease
- anti-inflammatory factors (IL-4, IL-10) in serum [2]: significantly elevated
- pro-inflammatory factors (TNFα, IFNγ, IL-2) in serum [2]: slightly lower than those in the model group
- thioflavin-S-positive plaques [3]: reduced
